The source of these data is publication PMC9131871, “Impact of Micropolymorphism Outside the Peptide Binding Groove in the Clinically Relevant Allele HLA-C*14 on T Cell Responses in HIV-1 Infection” (Journal of Virology, 2022).

For one assay, the target named is HLA-C*14:02 (Homo sapiens, UniProt P10321, A176E/A330V/A35S/A97T/C350S/D114A/D33S/L171W/L180R/L218V/M285V/M309V/M331V/P208H/Q277E/Q291P/R121W/R243W/S123F/S297R/S48A/T329A/T363A/V319A). The assay can be described thus: LC-MS/MS identification of HLA-bound HIV-1 peptides from NL4-3-infected .221-C1402 cells. It counts as binding. On the set-up: key: ●: Closed circles indicate the peptide which was identified in HLA-C*1402 or/and -C*1403 expressing cells. Conditions: HIV-1 NL4-3-infected .221-C1402 cells, W6/32 immunoprecipitation, two independent replicate experiments. As for the experimental part:
(§1) 721.221 cells expressing CD4 and HLA-C*14:02 (.221-C1402) or HLA-C*14:03 (.221-C1403) were infected with the laboratory-adapted NL4-3 HIV-1 strain. HLA-peptide complexes were isolated from cell lysates by immunoprecipitation with the anti-HLA class I antibody W6/32; then, peptides were eluted, fractionated by high-performance liquid chromatography (HPLC), and finally analyzed by LC-MS/MS. Two independent replicate experiments were performed, in which a total of 7,970 and 8,447 unique 8- to 13-mer peptide sequences were identified from .221-C1402 and .221-C1403 cells, respectively (Fig. 1A). Of these peptides, 6,163 were identified in both the C*14:02- and C*14:03-bound peptide data sets, while other peptides were detected in the acid-eluted fraction from only a single allele. […] These motifs are consistent with the HLA-C*1402/03 peptide motifs previously estimated using reported epitopes ([29]).
(§2) .221-C1402 and .221-C1403 cells were infected with HIV-1 NL4-3 in a low volume of RPMI 1640 medium (Thermo Fisher) containing 10% fetal bovine serum (FBS), 2 mM L-glutamine, 100 U/mL penicillin, 100 μg/mL streptomycin, and 10 mM HEPES (R10). Fifty microliters of NL4-3 stock virus (Reverse transcriptase activity (RT) value = 4 × 10^2 ng/mL) was added to 8 × 10^6 .221-C1402 cells or .221-C1403, and the cells were then incubated for 1.5 h at 37°C, after which 20 mL of R10 was added and the cells were cultured overnight. At day 1 postinfection, a further 20 mL R10 was added, and cells were split (1:2) on day 2. On day 3 postinfection, the proportion of cells infected with HIV-1 was determined by intracellular p24 staining, as previously described ([46]). Infected flasks were then harvested for immunoprecipitation of HLA-peptide complexes.
(§3) .221-C1402 cells or .221-C1403 cells infected with NL4-3 (1.5 × 10^8 to 2 × 10^8 cells) were harvested, washed in phosphate-buffered saline (PBS), and lysed in 5 mL of lysis buffer (1% IGEPAL 630, 300 mM NaCl, 100 mM Tris [pH 8.0], plus protease inhibitors) at 4°C for 45 min. Two centrifugation steps (2,000 × g for 10 min followed by 20,000 × g for 30 min at 4°C) were next employed to clear the lysates of cell debris prior to overnight capture of HLA-peptide complexes on W6/32-coated protein A‐Sepharose beads. W6/32-bound HLA-peptide complexes were sequentially washed with 10 to 20 mL of wash buffer 1 (0.005% IGEPAL, 50 mM Tris [pH 8.0], 150 mM NaCl, 5 mM EDTA), wash buffer 2 (50 mM Tris [pH 8.0], 150 mM NaCl), wash buffer 3 (50 mM Tris [pH 8.0], 400 mM NaCl), and finally wash buffer 4 (50 mM Tris [pH 8.0]) under gravity flow in Econo-Column glass chromatography columns (Bio-Rad). Peptide-HLA complexes were eluted from the beads with 5 mL of 10% acetic acid and, after drying under vacuum, were loaded onto a 4.6- by 50-mm ProSwift RP-1S column (Thermo Fisher Scientific) and eluted from an Ultimate 3000 HPLC system (Thermo Scientific) using a 500-μL/min flow rate over 10 min from 2% to 34% buffer B (0.1% trifluoroacetic acid [TFA] in acetonitrile) in buffer A (0.1% TFA in water). Alternate fractions were pooled to give two final peptide fractions that were dried for LC-MS/MS analysis.
(§4) Each HPLC-eluted sample was resuspended in 20 μL loading buffer, and 9 μL of it was injected onto a 3-μm-particle-size 0.075-mm by 150-mm Acclaim PepMap RSLC C18 column and further loaded onto a 2-μm-particle-size, 75-μm by 50-cm Acclaim PepMap RSLC C18 column using an Ultimate 3000 nUPLC system (Thermo Scientific). A linear gradient of 3 to 25% buffer B (0.1% formic acid, 5% dimethyl sulfoxide [DMSO] in acetonitrile) in buffer A (0.1% formic acid, 5% DMSO in water) was applied over 1 h to elute peptides from the column (flow rate of […]). Peptides were introduced, using an Easy-Spray source at 2,000 V at 40°C, into a Fusion Lumos mass spectrometer (Thermo Scientific). The ion transfer tube temperature was set to 305°C. […]

Another assay concerns the target HLA-C*14:03 (Homo sapiens, UniProt P10321, A176E/A330V/A35S/A97T/C350S/D114A/D33S/L171W/L180R/L218V/M285V/M309V/M331V/P208H/Q277E/Q291P/R121W/R243W/R45H/S123F/S297R/S48A/T329A/T363A/V319A). The assay can be described thus: LC-MS/MS identification of HLA-bound HIV-1 peptides from NL4-3-infected .221-C1403 cells. It counts as binding. On the set-up: key: ●: Closed circles indicate the peptide which was identified in HLA-C*1402 or/and -C*1403 expressing cells. Conditions: HIV-1 NL4-3-infected .221-C1403 cells, W6/32 immunoprecipitation, two independent replicate experiments. The procedure: as §1, §2, §3, §4

With IYHTQGYF [Nef IF8], the “C1402: peptide identified by LC-MS/MS in HLA-I eluate” value (“C1402: peptide identified by LC-MS/MS” below) at HLA-C*14:02 is recorded as “●”. In addition, at HLA-C*14:03, the “C1403: peptide identified by LC-MS/MS in HLA-I eluate” value (shortened to “C1403: peptide identified by LC-MS/MS”) was “●”.
For “VYYDPSKDL [Pol VYL9, HIV-1 NL4-3 Pol 472–480 peptide …]”, the “C1402: peptide identified by LC-MS/MS” value at HLA-C*14:02 is given as “●”. The “C1403: peptide identified by LC-MS/MS” value on HLA-C*14:03 was “●”.
On to AFSPEVIPM [Gag AM9], for which the “C1402: peptide identified by LC-MS/MS” value on HLA-C*14:02 was “●”.
For the sequence YFPDWQNYT [Nef YT9], the “C1402: peptide identified by LC-MS/MS” value on HLA-C*14:02 is “●”. Besides, on HLA-C*14:03, the “C1403: peptide identified by LC-MS/MS” value is given as “●”.
Take KYHSNWRAM [Pol KM9]: the “C1402: peptide identified by LC-MS/MS” value at HLA-C*14:02 is recorded as “●”. In addition, the “C1403: peptide identified by LC-MS/MS” value on HLA-C*14:03 is “●”.
For the sequence “RFDSRLAF [Nef RF8, HIV-1 NL4-3 Nef 184–191 peptide RFDSRLAF]”, the “C1402: peptide identified by LC-MS/MS” value on HLA-C*14:02 is “●”. Moreover, at HLA-C*14:03, the “C1403: peptide identified by LC-MS/MS” value is given as “●”.
On to “FMTKALGI [Tat FI8, HIV-1 NL4-3 Tat 38–45 peptide FMTKALGI]”, for which the “C1403: peptide identified by LC-MS/MS” value on HLA-C*14:03 is “●”.
Turning to LYNTIAVLY [Gag LY9], on HLA-C*14:02, the “C1402: peptide identified by LC-MS/MS” value is listed as “●”. Besides, the “C1403: peptide identified by LC-MS/MS” value on HLA-C*14:03 is on record as “●”.
In the case of AFHHVAREL [Nef AL9], the “C1402: peptide identified by LC-MS/MS” value at HLA-C*14:02 is recorded as “●”. Moreover, the “C1403: peptide identified by LC-MS/MS” value at HLA-C*14:03 is listed as “●”.
With “FFREDLAF [Pol FF8, HIV-1 NL4-3 Pol 1–8 peptide FFREDLAF]”, the “C1403: peptide identified by LC-MS/MS” value on HLA-C*14:03 was “●”.
Take “ASGYIEAEV [Pol AV9, HIV-1 NL4-3 Pol 795–803 peptide …]”: on HLA-C*14:03, the “C1403: peptide identified by LC-MS/MS” value is given as “●”.
“FLGAAGSTM [Env FM9, HIV-1 NL4-3 Env 522–530 peptide …]”: the “C1402: peptide identified by LC-MS/MS” value at HLA-C*14:02 was “●”. Moreover, on HLA-C*14:03, the “C1403: peptide identified by LC-MS/MS” value is “●”.
